Values of other authors, collected in patent US8110226B2, “Drug formulations having inert sealed cores” (Mylan Pharmaceuticals Inc., priority 2007, dated 2012).

Conditions: first pKa of non-polymeric pH modifying acid

Question: For `CC(O)C(=O)O` (stereo not shown) [Lactic Acid], which pKa is on record?
Answer: 4.14
